Square brackets hold non-standard residues; d marks the D form. Ends that are not written are not given here. Peptide text beside a SMILES is read from it.
Experiments:
[1] = test system: human umbilical artery; experiment: Smooth muscle contraction of human umbilical artery; type: cell-based; conditions: for EC50: concentration resulting in 50% maximum contraction; for pD2 ± SE: −log EC50 (M), mean ± SE, n 3
Method: (§1) Pharmacologic assays. […] Statistical analysis of the values obtained from pharmacologic assays was performed using one-way analysis of variance (ANOVA).

[2] = biological target: T1, C5aR (Homo sapiens, UniProt P21730); experiment: Binding affinity for C5aRs on human PMNs (125I-C5a competition)
T1 construct: endogenous in cells; host or cells: intact human PMNs (polymorphonuclear leukocytes)
T1 sequence (P21730 1-350): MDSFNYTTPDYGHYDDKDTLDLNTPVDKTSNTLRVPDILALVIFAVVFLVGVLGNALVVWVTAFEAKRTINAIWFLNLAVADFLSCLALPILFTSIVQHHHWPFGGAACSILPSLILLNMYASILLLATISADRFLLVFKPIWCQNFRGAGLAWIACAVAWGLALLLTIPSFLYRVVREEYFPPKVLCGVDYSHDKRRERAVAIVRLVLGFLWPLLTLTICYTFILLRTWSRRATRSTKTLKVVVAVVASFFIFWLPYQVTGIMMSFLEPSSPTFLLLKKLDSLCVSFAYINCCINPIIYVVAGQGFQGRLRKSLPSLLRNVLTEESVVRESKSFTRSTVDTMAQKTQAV
Method: Pharmacologic assays. C5a-like agonistic activity was assessed by the ability of the peptides to induce smooth muscle contraction of human umbilical artery and […] from human PMNs according to previously published methods (Sanderson et al., 1994, supra; Sanderson et al., J. Med. Chem. 38, 3669, 1995; Finch et al., J. Med. Chem. 40, 877, 1997). Full concentration-response curves were generated for individual peptides and natural C5a in each assay and the EC50 values (the concentration of peptide producing 50% of the maximal response to each peptide) were calculated. pD2 transforms [−log EC50 (M)] were calculated for each concentration-response curve and reported as the mean±SE. Peptide binding affinity to the C5aR was evaluated on intact human PMNs by a competition assay using ^125I-C5a according to previously described methods (Sanderson et al., 1995, supra; Finch et al., 1997, supra). Statistical analysis of the values obtained from pharmacologic assays was performed using one-way analysis of variance (ANOVA).

[3] = test system: human PMNs; experiment: MPO release from human PMNs; type: cell-based; conditions: for EC50: concentration resulting in 50% maximum release of myeloperoxidase; for pD2 ± SE: −log EC50 (M), mean ± SE, n 3
Method: as §1

[4] = test system: 51Cr-labeled P815S (HBsAg transfectant) target cells; experiment: HBsAg-specific CTL response of immunized mice (51Cr-release assay); type: in vivo, BALB/c mice; conditions: for antigen-specific CTL response: three s.c. injections of 50 μg at 21 day intervals, no added adjuvant; for % Specific Lysis: s.c. in PBS, boost day 21, spleen cells day 42
[5] = test system: MUC1 epitope peptide; experiment: Serum antibody response to MUC1 epitope in immunized mice (RIA); type: in vivo; conditions: C57Bl6 and Balb/c mice, 100 μg i.p. with RIBI adjuvant, three immunizations, sera at 6 weeks
From the text: iii. Animal Models. The strains of mice used for this example were inbred females 6 to 12 week old C57Bl6(H-2^b) and Balb/c (H-2^d), which were obtained from Jackson labs (Bar Harbor, Me.). […] The MUC1 peptide selected for these studies contained a motif that may bind to the H-2K^b molecule of the C57Bl6 mice; therefore, a strain of mouse that lacked this class I molecule binding motif (Balb/c) was also studied to determine the relative contribution of the class I binding motif to the antigen presentation properties of these peptides.
iv. Immunization protocol. Preimmune sera were obtained from mice, which were subsequently immunized intraperitoneally with 100 μg of the indicated peptide with RIBI adjuvant (MPL+TDM+CWS) (Sigma Immunochemicals). Animals were boosted twice at two week intervals using the same injection procedure. Sera were obtained following three immunizations (at 6 weeks).
v. Analysis of serum antibody responses. For radioimmunoassay (RIA), anti-peptide antibodies were determined, before and at different time points after immunization, in 96-well microtiter plates (Dynatech Laboratories, Inc.). Plates were coated with 50 μl of a 100 μg/ml appropriate peptide in phosphate-buffered saline (PBS) pH 7.4 solution overnight at 4° C. The wells were blocked by incubation with 5% dry milk in PBS pH 7.4 for at least two hours. Anti-peptide antibody titers were determined using serial dilutions of sera. The sera were diluted with PBS containing 0.05% Tween-20, pH 7.4 (washing buffer) and 50 μl of each dilution was incubated at 37° C. for 1 hour. The wells were then drained, washed 4 times with PBS-Tween and 50 μl of ^125I-goat anti-mouse Ab (1-2×10^4 cpm/well) was added and incubated for 1 hr at 25° C. After washing, specific radioactivity was recorded in a gamma counter (1272 CliniGamma, LKB).
vi. Experimental groups. […]

[6] = test system: MUC1 peptide; experiment: MUC1-specific antibody isotype titers in immunized mice (ELISA); type: in vivo; conditions: for MUC1 specific Ab titer, IgA / MUC1 specific Ab titer, IgG1 / MUC1 specific Ab titer, IgG2a / MUC1 specific Ab titer, IgG2b / MUC1 specific Ab titer, IgG3 / MUC1 specific Ab titer, IgM: five C57BL6 mice, mean titer of responders, sera screened against MUC1 peptide

`CC[C@H](C)[C@H](N)C(=O)N1CCC[C@H]1C(=O)N[C@@H](CCC(N)=O)C(=O)N[C@@H](CO)C(=O)N[C@@H](CC(C)C)C(=O)N[C@@H](CC(=O)O)C(=O)N[C@@H](CO)C(=O)N[C@@H](Cc1c[nH]c2ccccc12)C(=O)N[C@@H](Cc1c[nH]c2ccccc12)C(=O)N[C@H](C(=O)N[C@@H](CO)C(=O)N[C@@H](CC(C)C)C(=O)N[C@@H](CCCNC(=N)N)C(=O)N[C@@H](CCCNC(=N)N)C(=O)N[C@@H](Cc1ccc(O)cc1)C(=O)N[C@@H](CO)C(=O)N[C@@H](Cc1ccccc1)C(=O)N[C@@H](CCCCN)C(=O)N1CCC[C@H]1C(=O)N[C@@H](CCSC)C(=O)N1CCC[C@H]1C(=O)N[C@@H](CC(C)C)C(=O)N[C@H](C)C(=O)N[C@@H](CCCNC(=N)N)C(=O)NCC(=O)O)[C@@H](C)O` (H-IPQSLDSWWTSLRRYSFKPMPL[dA]RG-OH; N-terminus and C-terminus assumed) was tested, and the EC50 [1] was 6.78 µM, the “pD2 ± SE” value [1] was 5.17 ± 0.13 and the EC50 [2] was 17 µM. For the same compound, the IC50 [2] was 17 µM, the EC50 [3] was 2.56 µM and the “pD2 ± SE” value [3] was 5.59 ± 0.28.
With `CC[C@H](C)[C@H](N)C(=O)N1CCC[C@H]1C(=O)N[C@@H](CCC(N)=O)C(=O)N[C@@H](CO)C(=O)N[C@@H](CC(C)C)C(=O)N[C@@H](CC(=O)O)C(=O)N[C@@H](CO)C(=O)N[C@@H](Cc1c[nH]c2ccccc12)C(=O)N[C@@H](Cc1c[nH]c2ccccc12)C(=O)N[C@H](C(=O)N[C@@H](CO)C(=O)N[C@@H](CC(C)C)C(=O)N[C@@H](CCCNC(=N)N)C(=O)N[C@H](C(=O)N[C@@H](CCCNC(=N)N)C(=O)N[C@@H](CCCNC(=N)N)C(=O)N[C@@H](Cc1ccc(O)cc1)C(=O)N[C@@H](CO)C(=O)N[C@@H](Cc1ccccc1)C(=O)N[C@@H](CCCCN)C(=O)N1CCC[C@H]1C(=O)N[C@@H](CCSC)C(=O)N1CCC[C@H]1C(=O)N[C@@H](CC(C)C)C(=O)N[C@H](C)C(=O)N[C@@H](CCCNC(=N)N)C(=O)O)C(C)C)[C@@H](C)O` (H-IPQSLDSWWTSLRVRRYSFKPMPL[dA]R-OH; N-terminus assumed) the EC50 [1] was 0.18 µM, the “pD2 ± SE” value [1] was 6.67 ± 0.22 and the EC50 [2] was 0.529 µM. The IC50 [2] was 0.525 µM, the “antigen-specific CTL response” value [4] was “able to elicit a specific CTL response that was significantly above background levels” and the EC50 [3] was 2.15 µM. For the same compound, the “pD2 ± SE” value [3] was 5.61 ± 0.19.
With `CC[C@H](C)[C@H](N)C(=O)N1CCC[C@H]1C(=O)N[C@@H](CCC(N)=O)C(=O)N[C@@H](CO)C(=O)N[C@@H](CC(C)C)C(=O)N[C@@H](CC(=O)O)C(=O)N[C@@H](CO)C(=O)N[C@@H](Cc1c[nH]c2ccccc12)C(=O)N[C@@H](Cc1c[nH]c2ccccc12)C(=O)N[C@H](C(=O)N[C@@H](CO)C(=O)N[C@@H](CC(C)C)C(=O)N[C@@H](Cc1ccc(O)cc1)C(=O)N[C@@H](CO)C(=O)N[C@@H](Cc1ccccc1)C(=O)N[C@@H](CCCCN)C(=O)N1CCC[C@H]1C(=O)N[C@@H](CCSC)C(=O)N1CCC[C@H]1C(=O)N[C@@H](CC(C)C)C(=O)N[C@H](C)C(=O)N[C@@H](CCCNC(=N)N)C(=O)O)[C@@H](C)O` (H-IPQSLDSWWTSLYSFKPMPL[dA]R-OH; N-terminus assumed) the EC50 [1] was 0.21 µM, the “pD2 ± SE” value [1] was 6.68 ± 0.17 and the EC50 [2] was 3.69 µM. For the same compound, the IC50 [2] was 3.72 µM, the “% Specific Lysis” value ([4]; Effector:Target Ratio 6.25:1) was 1% and the “% Specific Lysis” value ([4]; Effector:Target Ratio 12.5:1) was 2%. The “% Specific Lysis” value ([4]; Effector:Target Ratio 25:1) was 4%, the “% Specific Lysis” value ([4]; Effector:Target Ratio 50:1) was 6% and the “antigen-specific CTL response” value [4] was “lack of a CTL response”. The EC50 [3] was 1.58 µM and the “pD2 ± SE” value [3] was 5.80 ± 0.04.
For `CC[C@H](C)[C@H](NC(=O)[C@H](CCCNC(=N)N)NC(=O)[C@H](CCCNC(=N)N)NC(=O)[C@H](CCCNC(=N)N)NC(=O)[C@@H](C)NC(=O)[C@H](CC(C)C)NC(=O)[C@@H]1CCCN1C(=O)[C@H](CCSC)NC(=O)[C@@H]1CCCN1C(=O)[C@H](CCCCN)NC(=O)[C@H](Cc1ccccc1)NC(=O)[C@H](CO)NC(=O)[C@@H](N)Cc1ccc(O)cc1)C(=O)N1CCC[C@H]1C(=O)N[C@@H](CCC(N)=O)C(=O)N[C@@H](CO)C(=O)N[C@@H](CC(C)C)C(=O)N[C@@H](CC(=O)O)C(=O)N[C@@H](CO)C(=O)N[C@@H](Cc1c[nH]c2ccccc12)C(=O)N[C@@H](Cc1c[nH]c2ccccc12)C(=O)N[C@H](C(=O)N[C@@H](CO)C(=O)N[C@@H](CC(C)C)C(=O)O)[C@@H](C)O` (H-YSFKPMPL[dA]RRRIPQSLDSWWTSL-OH; N-terminus and C-terminus assumed), the EC50 [1] was 39.4 µM, the “pD2 ± SE” value [1] was 4.41 ± 0.06 and the EC50 [2] was 465 µM. For the same compound, the IC50 [2] was 468 µM, the EC50 [3] was over 1000 µM and the “pD2 ± SE” value [3] was over 3.
In the case of “IPQSLDSWWTSL [free L^d MHC class I-restricted HBsAg peptide S28-39]”, the “% Specific Lysis” value ([4]; Effector:Target Ratio 6.25:1) is reported as 3%, the “% Specific Lysis” value ([4]; Effector:Target Ratio 12.5:1) is reported as 3% and the “% Specific Lysis” value ([4]; Effector:Target Ratio 25:1) is reported as 5%. For the same compound, the “% Specific Lysis” value ([4]; Effector:Target Ratio 50:1) was 7%.
In the case of IPQSLDSWWTSLRR, the “% Specific Lysis” value ([4]; Effector:Target Ratio 6.25:1) is reported as 0%, the “% Specific Lysis” value ([4]; Effector:Target Ratio 12.5:1) is reported as 1% and the “% Specific Lysis” value ([4]; Effector:Target Ratio 25:1) is reported as 2%. For the same compound, the “% Specific Lysis” value ([4]; Effector:Target Ratio 50:1) was 2%.
With YKQGGFLGL [peptide 1] the “antibody response to MUC1 epitope (RIA)” value [5] was “no appreciable increase in antibody response”.
“YKQGGFLGL-KLH: MUC1 epitope conjugated to keyhole limpet hemocyanine (KLH) (also: conjugated to KLH) [reference compound]” was tested, and the “MUC1 specific Ab titer, IgA” value [6] was 0, the “MUC1 specific Ab titer, IgG1” value [6] was 100 (2/5) and the “MUC1 specific Ab titer, IgG2a” value [6] was 0. The “MUC1 specific Ab titer, IgG2b” value [6] was 0, the “MUC1 specific Ab titer, IgG3” value [6] was 0 and the “MUC1 specific Ab titer, IgM” value [6] was 5010 (4/5).
For YKQGGFLGLYSFKPMPLaR [peptide 3], the “antibody response to MUC1 epitope (RIA)” value [5] was “substantial responses were produced”, the “MUC1 specific Ab titer, IgA” value [6] was 0 and the “MUC1 specific Ab titer, IgG1” value [6] was 0. For the same compound, the “MUC1 specific Ab titer, IgG2a” value [6] was 1260, the “MUC1 specific Ab titer, IgG2b” value [6] was 1780 (5/5) and the “MUC1 specific Ab titer, IgG3” value [6] was 0 (5/5). For the same compound, the “MUC1 specific Ab titer, IgM” value [6] was 6310 (5/5), the “isotypes of the anti-peptide antibodies produced” value ([6]; immunized mice, FIG. 3) was “IgM, IgG2a, and IgG2b” and the “specificity of the antibody response for the MUC1 epitope” value ([6]; immunized mice, FIG. 4) was “includes a high percentage of antibodies that are specific for the MUC1 epitope”.
For YSFKPMPLaRKQGGFLGL [peptide 4], the “antibody response to MUC1 epitope (RIA)” value [5] was “immune responses were not produced”.
